Patent publication US8530435B2, “Brassinosteroids in treating prostatic hyperplasia and androgenic alopecia” (Grasses of Eden Ltd., priority 2008, dated 2013)

What was measured:
human genital skin 5αR = assay: 5α-reductase activity: reduction of testosterone to DHT in human foreskin tissue enzyme mixture, HPLC; type: biochemical; details: for Activity (% of control) / DHT/testosterone (final): initial testosterone 0.34 mM; for DHT/testosterone (final): control 0.1562
Protocol: 5α-reductase activity of soluble enzyme was measured by the reduction of testosterone at 37° C. during 40 min in a 3-ml enzyme mixture of human foreskin tissue or Bos taurus (Bovine) prostatic tissues, containing NADPH, with and without the test compound in parallel with analytical Ventranal standards for Testosterone and DHT. Tissue preparation and enzyme incubations were performed in accordance with Moore et al. (see below) with modifications. All steps were carried out at 4° C. Prostate or foreskin tissue was dissected and homogenized in ice-cold homogenization phosphate buffer at pH 8.0. The homogenate was centrifuged and the resulting cell free supernatant was stored in aliquots at −80° C. Inhibition of the steroid 5α-reductase was measured by incubating the enzyme and testosterone in the presence of a plant extract or a natural compound. […] The ratio of the peak areas gave quantitative measure of the inhibition [Neeman I. et al.: Urol.
The activity of 5α-reductase (EC: 1.3.99.5) was checked in human foreskin tissue and in bovine prostatic tissues. Pure compound and plant extracts were tested for their 5α-reductase inhibition activity, in various experiments.

mice = details: orally, mice (female); cited from earlier work
[1] = test system: mucous membranes of rabbits' eyes; details: concentrations of 0.2%; cited from earlier work
skin = details: in vivo; cited from earlier work
[2] = test system: Salmonella typhimurium TA 1534, TA 1537, TA 1950, TA 98, TA 100; details: with or without metabolic activation; cited from earlier work
mice CBAB1/6 = details: cited from earlier work
Tetrahymena pyriformis = details: over seven generations; cited from earlier work
[3] = cited from earlier work
fish = details: in vivo; cited from earlier work
rats = details: cited from earlier work

Structure (SMILES)	human skin reductase activity inhibited (human genital skin 5αR; as in Table 1 (10^−7M))	Activity (% of control) (human genital skin 5αR; inhibitor 10^−7M)	DHT/testosterone (final) (human genital skin 5αR; inhibitor 10^−7M)	LD50 (mice)	irritation of mucous membranes of eyes [1]	skin irritation (skin)	Ames test for mutagenic activity [2]	spontaneous mutations in micronuclear or chromosome abberation tests (mice CBAB1/6)	genetic safety / mutagenic activity (Tetrahymena pyriformis)	toxicity and cumulative effect ([3]; acute, subacute, and chronic experiments)	adaptogenic effect (increasing adaptive ability of the population) ([3]; prolonged experiments)	toxicity ([3]; prolonged experiments)	fish toxicity (fish)	stimulative and toxico-protective properties in fish (fish)	LD50 (rats; orally and dermally, rats (male/female))	Dermal toxicity (rats; rat, in vivo)	Activity (% of control) (human genital skin 5αR; inhibitor 10^−6M)	DHT/testosterone (final) (human genital skin 5αR; inhibitor 10^−6M)
CC(C)[C@@H](C)[C@@H](O)[C@H](O)[C@@H](C)[C@H]1CC[C@H]2[C@@H]3COC(=O)[C@H]4C[C@H](O)[C@H](O)C[C@]4(C)[C@H]3CC[C@]12C [Epibrassinolide-24]	74%	25.9 % of control	0.0404	more than 1000 mg/kg	did not irritate	did not irritate the skin	negative	neither epibrassinolide-24 nor the liquid formulation caused spontaneous mutations	absence of mutagenic activity	low toxicity and very little cumulative effect	pronounced adaptogenic effect	no toxicity	no negative effects	pronounced stimulative and toxico-protective properties	more than 2000 mg/kg	more than 2000 mg/kg		
CC(C)(C)NC(=O)[C@H]1CC[C@H]2[C@@H]3CC[C@H]4NC(=O)C=C[C@]4(C)[C@H]3CC[C@]12C [Finasteride, reference compound]																	32.7 % of control	0.0607
